Experimental data as given in patent US4276378A, “High sensitivity assays for angiotensin converting enzyme” (priority 1977, dated 1981).
Peptide text beside a SMILES is read from it. * marks the point of attachment. Bz = O=C(c1ccccc1)*

Assays:
Guinea pig urinary ACE = biological target: T1, Guinea pig urinary ACE (Cavia porcellus, UniProt H0UWL7); assay: Sulfate and chloride effects on substrate hydrolysis (Example 3); format: biochemical; details: 37° C.
T1 sequence (H0UWL7 33-1302): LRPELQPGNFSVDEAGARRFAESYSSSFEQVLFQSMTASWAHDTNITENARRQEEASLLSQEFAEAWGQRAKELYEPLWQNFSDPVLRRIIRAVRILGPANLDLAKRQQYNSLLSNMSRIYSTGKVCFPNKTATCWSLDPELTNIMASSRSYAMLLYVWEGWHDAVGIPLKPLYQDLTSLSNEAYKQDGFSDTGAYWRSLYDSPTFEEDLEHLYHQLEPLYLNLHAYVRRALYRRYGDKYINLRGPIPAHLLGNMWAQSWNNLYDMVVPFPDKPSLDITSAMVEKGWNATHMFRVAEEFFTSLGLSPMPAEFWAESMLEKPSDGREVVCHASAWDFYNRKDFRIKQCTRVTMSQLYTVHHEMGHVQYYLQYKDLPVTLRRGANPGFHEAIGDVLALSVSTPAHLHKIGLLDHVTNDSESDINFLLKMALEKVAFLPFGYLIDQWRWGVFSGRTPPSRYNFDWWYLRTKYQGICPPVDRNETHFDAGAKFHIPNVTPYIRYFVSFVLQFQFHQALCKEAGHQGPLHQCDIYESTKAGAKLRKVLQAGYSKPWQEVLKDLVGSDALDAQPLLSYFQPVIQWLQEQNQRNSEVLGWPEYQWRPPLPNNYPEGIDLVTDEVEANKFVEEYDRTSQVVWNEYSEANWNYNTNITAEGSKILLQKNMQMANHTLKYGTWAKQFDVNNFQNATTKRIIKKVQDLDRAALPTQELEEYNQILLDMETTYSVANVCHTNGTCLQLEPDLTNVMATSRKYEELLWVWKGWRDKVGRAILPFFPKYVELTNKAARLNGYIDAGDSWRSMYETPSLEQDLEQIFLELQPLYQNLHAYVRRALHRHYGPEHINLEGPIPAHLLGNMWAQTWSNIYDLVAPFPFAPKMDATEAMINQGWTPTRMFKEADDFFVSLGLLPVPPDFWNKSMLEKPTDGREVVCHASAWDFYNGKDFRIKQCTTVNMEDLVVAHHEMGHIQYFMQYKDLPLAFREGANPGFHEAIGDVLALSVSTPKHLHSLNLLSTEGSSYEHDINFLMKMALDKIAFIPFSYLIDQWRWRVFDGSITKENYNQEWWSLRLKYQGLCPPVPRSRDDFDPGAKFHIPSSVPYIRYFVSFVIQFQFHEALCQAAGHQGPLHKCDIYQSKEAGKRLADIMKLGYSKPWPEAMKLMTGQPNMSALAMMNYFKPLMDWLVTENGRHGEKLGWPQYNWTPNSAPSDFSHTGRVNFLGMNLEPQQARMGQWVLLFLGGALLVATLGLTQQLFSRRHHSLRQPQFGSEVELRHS

[1] = Solvent extraction of substrate and remnant product from acidified reaction mixture; format: physicochemical
Description: While a variety of organic solvents may be suitable for the extraction step, it is preferred to employ toluene.

ACE [2] = assay: Response of 3H-benzoylPheAlaPro hydrolysis to ions; format: biochemical
Method: An even more sensitive assay for ACE activity has been developed using the novel compound ^3 H-benzoylPheAlaPro as substrate. This new substrate can be used to assay ACE in human urine in incubations as short as 15 minutes. The response of this substrate to ions is strikingly different from the response of HipHisLeu. […] This difficulty has been solved by the proper choice of extracting solvent. While a variety of organic solvents may be suitable for the extraction step, it is preferred to employ toluene. Approximately 88% of ^3 H-benzoylPhe enters the toluene phase while only 6% of the unhydrolyzed substrate enters the toluene phase, when toluene and the acidified reaction mixtures are in approximately equal volumes at room temperature.
The enzyme is active over a broad pH range with a maximum around pH 8.0, but is at least about 50% active in the range pH 7.0-pH 8.8, for both HipHisLeu and benzoylPheAlaPro. Although the enzyme is active in a variety of buffer systems known in the art, it is preferred for convenience, when using benzoylPheAlaPro as substrate, to conduct the assays in 0.05 M Hepes buffer, pH 8.0 containing 0.15 M sodium chloride. Detailed protocols for carrying out the assay are given in the examples. […] The preferred concentration range is 1×10^-9 M to 7×10^-5 M.

ACE from rabbit lung = details: removal of sodium chloride from the reaction medium; cited from earlier work
ACE [3] = biological target: ACE (Homo sapiens, UniProt P12821); details: chloride absent; cited from earlier work
Sequence of ACE (Homo sapiens, UniProt P12821) (P12821 30-1306, species assumed): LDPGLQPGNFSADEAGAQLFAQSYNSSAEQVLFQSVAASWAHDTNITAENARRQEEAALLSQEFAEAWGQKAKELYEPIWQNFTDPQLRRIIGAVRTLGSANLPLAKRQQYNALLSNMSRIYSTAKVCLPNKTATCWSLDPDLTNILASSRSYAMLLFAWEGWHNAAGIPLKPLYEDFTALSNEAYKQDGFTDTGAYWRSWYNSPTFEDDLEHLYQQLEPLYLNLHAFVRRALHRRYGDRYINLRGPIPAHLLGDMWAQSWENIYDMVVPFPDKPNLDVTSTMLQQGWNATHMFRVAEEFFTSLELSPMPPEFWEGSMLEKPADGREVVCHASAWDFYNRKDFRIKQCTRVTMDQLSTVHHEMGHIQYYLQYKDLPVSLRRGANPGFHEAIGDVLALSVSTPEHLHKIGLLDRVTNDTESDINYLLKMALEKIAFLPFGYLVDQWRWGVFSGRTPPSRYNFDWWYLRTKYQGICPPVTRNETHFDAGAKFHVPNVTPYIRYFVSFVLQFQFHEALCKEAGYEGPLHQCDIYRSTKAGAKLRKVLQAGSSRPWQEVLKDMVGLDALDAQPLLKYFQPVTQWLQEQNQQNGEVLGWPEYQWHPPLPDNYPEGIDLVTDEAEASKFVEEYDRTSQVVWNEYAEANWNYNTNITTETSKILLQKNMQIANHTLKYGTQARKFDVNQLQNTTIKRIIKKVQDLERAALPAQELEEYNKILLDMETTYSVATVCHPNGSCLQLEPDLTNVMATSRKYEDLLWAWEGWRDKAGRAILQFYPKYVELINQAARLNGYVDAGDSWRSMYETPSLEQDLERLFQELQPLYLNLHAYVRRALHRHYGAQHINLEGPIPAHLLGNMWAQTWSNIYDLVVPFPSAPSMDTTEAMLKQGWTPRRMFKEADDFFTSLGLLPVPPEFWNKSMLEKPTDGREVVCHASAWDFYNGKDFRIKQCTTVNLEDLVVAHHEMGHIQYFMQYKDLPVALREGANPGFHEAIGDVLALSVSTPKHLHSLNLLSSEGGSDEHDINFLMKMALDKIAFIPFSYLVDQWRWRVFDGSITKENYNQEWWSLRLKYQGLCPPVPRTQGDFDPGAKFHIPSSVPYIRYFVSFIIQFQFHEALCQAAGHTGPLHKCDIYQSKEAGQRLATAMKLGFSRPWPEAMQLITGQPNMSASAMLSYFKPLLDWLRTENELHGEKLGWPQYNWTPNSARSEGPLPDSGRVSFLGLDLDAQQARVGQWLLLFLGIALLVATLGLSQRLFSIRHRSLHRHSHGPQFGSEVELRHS

C[C@H](NC(=O)[C@H](Cc1ccccc1)NC(=O)c1ccccc1)C(=O)N1CCC[C@H]1C(=O)O [benzoylPheAlaPro, benzoyl-Phe-Ala-Pro] (Bz-Phe-Ala-Pro-OH)
Reaction Velocity-Percent of Substrate Hydrolyzed in 10 minutes (Guinea pig urinary ACE; benzPheAlaPro, 0.05 Hepes, pH 8.0, 0.15M HCl, Na2 SO4 concentration 0): 4.4%
Reaction Velocity-Percent of Substrate Hydrolyzed in 10 minutes (Guinea pig urinary ACE; benzPheAlaPro, 0.05 Hepes, pH 8.0, 0.15M HCl, Na2 SO4 concentration 0.1): 5.0%
Reaction Velocity-Percent of Substrate Hydrolyzed in 10 minutes (Guinea pig urinary ACE; benzPheAlaPro, 0.05 Hepes, pH 8.0, 0.15M HCl, Na2 SO4 concentration 0.2): 4.45%
Reaction Velocity-Percent of Substrate Hydrolyzed in 10 minutes (Guinea pig urinary ACE; benzPheAlaPro, 0.05 Hepes, pH 8.0, 0.15M HCl, Na2 SO4 concentration 0.3): 4.85%
Reaction Velocity-Percent of Substrate Hydrolyzed in 10 minutes (Guinea pig urinary ACE; benzPheAlaPro, 0.05 Hepes, pH 8.0, 0.15M HCl, Na2 SO4 concentration 0.5): 5.6%
extraction into ethyl acetate ([1]; reaction terminated with dilute hydrochloric acid): almost quantitatively
fraction entering the toluene phase ([1]; toluene and acidified reaction mixture in approximately equal volumes at room temperature): 6%
effect of sodium sulfate on hydrolysis (ACE [2]; 3H-benzoylPheAlaPro as substrate): not stimulatory
increase of apparent reaction velocity by added sodium chloride (ACE [2]; added sodium chloride at 0.05 M, 0.05 M Hepes buffer at pH 8.0): approximately 3 fold

CC(C)C[C@H](NC(=O)[C@H](Cc1c[nH]cn1)NC(=O)CNC(=O)c1ccccc1)C(=O)O [HipHisLeu] (Bz-Gly-His-Leu-OH)
Reaction Velocity-Percent of Substrate Hydrolyzed in 10 minutes (Guinea pig urinary ACE; HipHisLeu, 0.05M Hepes, pH 8.0, 0.0M NaCl, Na2 SO4 concentration 0): 0%
Reaction Velocity-Percent of Substrate Hydrolyzed in 10 minutes (Guinea pig urinary ACE; HipHisLeu, 0.05M Hepes, pH 8.0, 0.0M NaCl, Na2 SO4 concentration 0.1): 0%
Reaction Velocity-Percent of Substrate Hydrolyzed in 10 minutes (Guinea pig urinary ACE; HipHisLeu, 0.05M Hepes, pH 8.0, 0.0M NaCl, Na2 SO4 concentration 0.2): 0%
Reaction Velocity-Percent of Substrate Hydrolyzed in 10 minutes (Guinea pig urinary ACE; HipHisLeu, 0.05M Hepes, pH 8.0, 0.0M NaCl, Na2 SO4 concentration 0.3): 0%
Reaction Velocity-Percent of Substrate Hydrolyzed in 10 minutes (Guinea pig urinary ACE; HipHisLeu, 0.05M Hepes, pH 8.0, 0.0M NaCl, Na2 SO4 concentration 0.4): 0.1%
Reaction Velocity-Percent of Substrate Hydrolyzed in 10 minutes (Guinea pig urinary ACE; HipHisLeu, 0.05M Hepes, pH 8.0, 0.0M NaCl, Na2 SO4 concentration 0.5): 0.1%
Reaction Velocity-Percent of Substrate Hydrolyzed in 10 minutes (Guinea pig urinary ACE; HipHisLeu, 0.05M Hepes, pH 8.0, 0.0M NaCl, Na2 SO4 concentration 0.6): 0.25%
Reaction Velocity-Percent of Substrate Hydrolyzed in 10 minutes (Guinea pig urinary ACE; HipHisLeu, 0.05M Hepes, pH 8.0, 0.0M NaCl, Na2 SO4 concentration 0.7): 0.25%
Reaction Velocity-Percent of Substrate Hydrolyzed in 10 minutes (Guinea pig urinary ACE; HipHisLeu, 0.05M Hepes, pH 8.0, 0.0M NaCl, Na2 SO4 concentration 0.75): 0.25%
Reaction Velocity-Percent of Substrate Hydrolyzed in 10 minutes (Guinea pig urinary ACE; HipHisLeu, 0.05M Hepes, pH 8.0, 0.0M NaCl, Na2 SO4 concentration 0.8): 0.25%
Reaction Velocity-Percent of Substrate Hydrolyzed in 10 minutes (Guinea pig urinary ACE; HipHisLeu, 0.05M Hepes, pH 8.0, 0.0M NaCl, Na2 SO4 concentration 0.9): 0.7%
Reaction Velocity-Percent of Substrate Hydrolyzed in 10 minutes (Guinea pig urinary ACE; HipHisLeu, 0.05M Hepes, pH 8.0, 0.0M NaCl, Na2 SO4 concentration 1.2): 3.9%
Reaction Velocity-Percent of Substrate Hydrolyzed in 10 minutes (Guinea pig urinary ACE; HipHisLeu, 0.05M Hepes, pH 8.0, 0.1M NaCl, Na2 SO4 concentration 0): 0.3%
Reaction Velocity-Percent of Substrate Hydrolyzed in 10 minutes (Guinea pig urinary ACE; HipHisLeu, 0.05M Hepes, pH 8.0, 0.1M NaCl, Na2 SO4 concentration 0.4): 4.1%
Reaction Velocity-Percent of Substrate Hydrolyzed in 10 minutes (Guinea pig urinary ACE; HipHisLeu, 0.05M Hepes, pH 8.0, 0.1M NaCl, Na2 SO4 concentration 0.6): 8.3%
Reaction Velocity-Percent of Substrate Hydrolyzed in 10 minutes (Guinea pig urinary ACE; HipHisLeu, 0.05M Hepes, pH 8.0, 0.1M NaCl, Na2 SO4 concentration 0.75): 12.05%
Reaction Velocity-Percent of Substrate Hydrolyzed in 10 minutes (Guinea pig urinary ACE; HipHisLeu, 0.05M Hepes, pH 8.0, 0.1M NaCl, Na2 SO4 concentration 0.9): 12.25%
inhibition of hydrolysis (ACE from rabbit lung): 92%
inhibition of hydrolysis (ACE [3]): 86%
